Biological target: T1, human NaV1.6 (hNaV1.6) (Homo sapiens, UniProt Q9UQD0)
T1 construct: expressed in transfected cells; host or cells: HEK-293
Assay: Modulation of late sodium current (INaL), PatchXpress electrophysiology, HEK-293 cells expressing hNaV1.6
Format: cell-based
Details: HEK293, late current evoked by 300 nM ATX-II, read-out: NaV 1.6 Assay Data: percent inhibition of INaL at hNaV1.6
Method: Functional characterization of exemplary compounds to modulate INaL expressed by the NaV1.6 voltage-gated sodium channel was accomplished using the PatchXpress™ high throughput electrophysiology platform (Molecular Devices, Sunnyvale, Calif.). HEK-293 cells expressing recombinant, human NaV1.6 (hNaV1.6) were grown in DMEM/high-glucose Dulbecco's modified, 10% FBS, 2 mM sodium pyruvate, 10 mM HEPES and 400 μg/mL G418. Cells were grown to 50%-80% confluency prior to harvesting. Trypsinized cells were washed, allowed to recover for 1 hour and then resuspended in extracellular recording solution at a concentration of 1×10^6 cells/ml. The onboard liquid handling facility of the PatchXpress was used for dispensing cells and applying test compounds. NaV late currents were evoked by the application of 300 nM ATX-II. INaL was evoked by depolarizing pulses to 0 mV for 200 ms from a non-inactivating holding potential (e.g., −120 mV) at a frequency of 0.1 Hz. INaL amplitude and stability were determined by analyzing the mean current amplitude over the final 20 ms of the test pulse. Following steady state block with exemplary compounds (e.g., as described herein), a Na+ free solution containing an impermeant cation (e.g., Choline or NDMG) was added to confirm the identify of the sodium current. Percent steady-state inhibition of INaL was calculated as: [(INaL_compound)/(INaL_control)]*100, where INaL_compound and INaL_control represent INaL recorded in the presence or absence of compound, respectively.

T1 sequence (Q9UQD0 whole entry): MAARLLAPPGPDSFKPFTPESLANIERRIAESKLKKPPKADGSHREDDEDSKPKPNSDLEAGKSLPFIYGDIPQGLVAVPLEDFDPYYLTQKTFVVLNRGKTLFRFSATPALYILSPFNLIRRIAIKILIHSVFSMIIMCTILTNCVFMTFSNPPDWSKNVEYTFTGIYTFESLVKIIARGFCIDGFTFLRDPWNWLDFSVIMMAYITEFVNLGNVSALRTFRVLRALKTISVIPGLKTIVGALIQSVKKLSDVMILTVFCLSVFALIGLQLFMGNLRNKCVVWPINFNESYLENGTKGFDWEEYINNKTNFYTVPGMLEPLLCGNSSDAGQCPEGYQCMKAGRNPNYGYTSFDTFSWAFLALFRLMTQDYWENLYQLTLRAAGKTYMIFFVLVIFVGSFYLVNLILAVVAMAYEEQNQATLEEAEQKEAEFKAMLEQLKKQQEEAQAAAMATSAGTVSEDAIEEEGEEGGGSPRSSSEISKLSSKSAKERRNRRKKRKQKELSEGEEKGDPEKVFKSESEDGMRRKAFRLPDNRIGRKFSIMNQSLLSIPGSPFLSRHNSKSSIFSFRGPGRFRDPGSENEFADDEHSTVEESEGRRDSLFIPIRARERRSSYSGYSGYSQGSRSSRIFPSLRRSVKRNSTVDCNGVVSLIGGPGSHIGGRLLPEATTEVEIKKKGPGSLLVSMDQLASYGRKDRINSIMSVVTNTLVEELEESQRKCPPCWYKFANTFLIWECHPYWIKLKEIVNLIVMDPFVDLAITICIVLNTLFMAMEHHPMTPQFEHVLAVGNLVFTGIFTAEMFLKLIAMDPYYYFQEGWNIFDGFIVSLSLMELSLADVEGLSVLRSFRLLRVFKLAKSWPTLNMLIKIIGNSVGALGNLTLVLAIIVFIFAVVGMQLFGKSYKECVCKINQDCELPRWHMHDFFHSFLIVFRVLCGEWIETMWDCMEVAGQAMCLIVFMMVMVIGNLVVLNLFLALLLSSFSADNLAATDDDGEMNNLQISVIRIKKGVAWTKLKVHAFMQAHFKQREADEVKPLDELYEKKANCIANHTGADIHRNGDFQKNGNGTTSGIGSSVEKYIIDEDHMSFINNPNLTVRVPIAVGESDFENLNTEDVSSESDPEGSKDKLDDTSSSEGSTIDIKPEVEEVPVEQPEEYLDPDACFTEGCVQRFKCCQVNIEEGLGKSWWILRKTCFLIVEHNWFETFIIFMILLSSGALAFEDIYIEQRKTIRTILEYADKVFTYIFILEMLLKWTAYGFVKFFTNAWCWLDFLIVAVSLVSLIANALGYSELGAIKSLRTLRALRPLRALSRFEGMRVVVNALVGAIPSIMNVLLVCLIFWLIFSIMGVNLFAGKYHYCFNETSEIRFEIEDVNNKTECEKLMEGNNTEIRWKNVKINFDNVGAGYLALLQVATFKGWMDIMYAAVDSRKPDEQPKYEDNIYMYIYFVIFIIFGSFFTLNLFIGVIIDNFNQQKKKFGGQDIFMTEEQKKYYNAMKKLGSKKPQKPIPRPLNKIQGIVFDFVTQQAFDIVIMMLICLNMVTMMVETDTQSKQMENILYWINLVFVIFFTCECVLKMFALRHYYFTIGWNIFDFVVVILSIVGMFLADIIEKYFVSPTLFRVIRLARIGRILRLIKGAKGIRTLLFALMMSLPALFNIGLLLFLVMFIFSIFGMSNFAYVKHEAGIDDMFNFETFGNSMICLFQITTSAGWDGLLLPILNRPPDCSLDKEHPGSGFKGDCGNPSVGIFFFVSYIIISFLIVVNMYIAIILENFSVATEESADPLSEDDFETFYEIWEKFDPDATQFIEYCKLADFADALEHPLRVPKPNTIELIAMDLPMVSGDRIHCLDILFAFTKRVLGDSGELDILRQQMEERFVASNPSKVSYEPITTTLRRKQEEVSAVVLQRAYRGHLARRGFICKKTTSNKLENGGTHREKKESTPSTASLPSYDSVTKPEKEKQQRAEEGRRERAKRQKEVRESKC

inhibition at 1 µM [%]	Structure (SMILES)
> 70	COC(F)(F)c1nnc2cnc(-c3cnc(O[C@H](C)C(F)(F)F)c(F)c3)cn12 (racemic) [Compound 6A, 3-[difluoro(methoxy)methyl]-6-[5-fluoro-6-[rac-(1R)-2,2,2-trifluoro-1-methyl-ethoxy]-3-pyridyl]-[1,2,4]triazolo[4,3-a]pyrazine]
> 70	Fc1cc(-c2ccc3nnc(C(F)(F)OCC4CC4)n3c2)cnc1OCC(F)(F)F [Compound 1, 3-[cyclopropylmethoxy(difluoro)methyl]-6-[5-fluoro-6-(2,2,2-trifluoroethoxy)-3-pyridyl]-[1,2,4]triazolo[4,3-a]pyridine]
> 70	CC(C)OC(F)(F)c1nnc2ccc(-c3cnc(OCC(F)(F)F)c(F)c3)cn12 [Compound 4, 3-[difluoro(isopropoxy)methyl]-6-[5-fluoro-6-(2,2,2-trifluoroethoxy)-3-pyridyl]-[1,2,4]triazolo[4,3-a]pyridine]
> 70	COC(F)(F)c1nnc2ccc(-c3cnc(OC(C)(C)C(F)(F)F)c(F)c3)nn12 [Compound 5, 3-[difluoro(methoxy)methyl]-6-[5-fluoro-6-(2,2,2-trifluoro-1,1-dimethyl-ethoxy)-3-pyridyl]-[1,2,4]triazolo[4,3-b]pyridazine]
> 70	COC(F)(F)c1nnc2ccc(-c3cnc(O[C@@H](C)C(F)(F)F)c(F)c3)cn12 [Compound 7, 3-[difluoro(methoxy)methyl]-6-[5-fluoro-6-[(1S)-2,2,2-trifluoro-1-methyl-ethoxy]-3-pyridyl]-[1,2,4]triazolo[4,3-a]pyridine]
> 70	COC(F)(F)c1nnc2ccc(-c3cnc(O[C@H](C)C(F)(F)F)c(F)c3)cn12 [Compound 8, 3-[difluoro(methoxy)methyl]-6-[5-fluoro-6-[(1R)-2,2,2-trifluoro-1-methyl-ethoxy]-3-pyridyl]-[1,2,4]triazolo[4,3-a]pyridine]
> 70	Fc1cc(-c2cn3c(C(F)(F)OCC4CC4)nnc3cn2)cnc1OCC(F)(F)F [Compound 9, 3-[cyclopropylmethoxy(difluoro)methyl]-6-[5-fluoro-6-(2,2,2-trifluoroethoxy)-3-pyridyl]-[1,2,4]triazolo[4,3-a]pyrazine]
> 70	COC(F)(F)c1nnc2ccc(-c3cnc(O[C@@H](C)C(F)(F)F)c(F)c3)nn12 [Compound 12, 3-[difluoro(methoxy)methyl]-6-[5-fluoro-6-[(1S)-2,2,2-trifluoro-1-methyl-ethoxy]-3-pyridyl]-[1,2,4]triazolo[4,3-b]pyridazine]
> 70	COC(F)(F)c1nnc2ccc(-c3cnc(O[C@H](C)C(F)(F)F)c(F)c3)nn12 [Compound 13, 3-[difluoro(methoxy)methyl]-6-[5-fluoro-6-[(1R)-2,2,2-trifluoro-1-methyl-ethoxy]-3-pyridyl]-[1,2,4]triazolo[4,3-b]pyridazine]
> 70	Fc1cc(-c2ccc3nnc(C(F)(F)OCC4CC4)n3n2)cnc1OCC(F)(F)F [Compound 14, 3-[cyclopropylmethoxy(difluoro)methyl]-6-[5-fluoro-6-(2,2,2-trifluoroethoxy)-3-pyridyl]-[1,2,4]triazolo[4,3-b]pyridazine]
> 70	COC(F)(F)c1nnc2cnc(-c3cnc(OC(C)(C)C(F)(F)F)c(F)c3)cn12 [Compound 15, 3-[difluoro(methoxy)methyl]-6-[5-fluoro-6-(2,2,2-trifluoro-1,1-dimethyl-ethoxy)-3-pyridyl]-[1,2,4]triazolo[4,3-a]pyrazine]
> 70	C[C@H](Oc1ncc(-c2ccc3nnc(C(F)(F)OCC4CC4)n3c2)cc1F)C(F)(F)F [Compound 19, 3-[cyclopropylmethoxy(difluoro)methyl]-6-[5-fluoro-6-[(1S)-2,2,2-trifluoro-1-methyl-ethoxy]-3-pyridyl]-[1,2,4]triazolo[4,3-a]pyridine]
> 70	CC(C)OC(F)(F)c1nnc2ccc(-c3cnc(O[C@@H](C)C(F)(F)F)c(F)c3)cn12 [Compound 20, 3-[difluoro(isopropoxy)methyl]-6-[5-fluoro-6-[(1S)-2,2,2-trifluoro-1-methyl-ethoxy]-3-pyridyl]-[1,2,4]triazolo[4,3-a]pyridine]
> 70	CC(C)OC(F)(F)c1nnc2ccc(-c3cnc(O[C@H](C)C(F)(F)F)c(F)c3)cn12 [Compound 21, 3-[difluoro(isopropoxy)methyl]-6-[5-fluoro-6-[(1R)-2,2,2-trifluoro-1-methyl-ethoxy]-3-pyridyl]-[1,2,4]triazolo[4,3-a]pyridine]
> 70	COC(F)(F)c1nnc2ccc(-c3cnc(OC(C)(C)C(F)(F)F)c(F)c3)cn12 [Compound 24, 3-[difluoro(methoxy)methyl]-6-[5-fluoro-6-(2,2,2-trifluoro-1,1-dimethyl-ethoxy)-3-pyridyl]-[1,2,4]triazolo[4,3-a]pyridine]
> 70	C[C@@H](Oc1ncc(-c2ccc3nnc(C(F)(F)OCC4CC4)n3c2)cc1F)C(F)(F)F [Compound 25, 3-[cyclopropylmethoxy(difluoro)methyl]-6-[5-fluoro-6-[(1R)-2,2,2-trifluoro-1-methyl-ethoxy]-3-pyridyl]-[1,2,4]triazolo[4,3-a]pyridine]
> 70	CCOC(F)(F)c1nnc2cnc(-c3cnc(O[C@H](C)C(F)(F)F)c(F)c3)cn12 [Compound 26, 3-[ethoxy(difluoro)methyl]-6-[5-fluoro-6-[(1R)-2,2,2-trifluoro-1-methyl-ethoxy]-3-pyridyl]-[1,2,4]triazolo[4,3-a]pyrazine]
> 70	COC(F)(F)c1nnc2ccc(-c3cnc(OCC(F)(F)F)c(F)c3)cn12 [Compound 30, 3-[difluoro(methoxy)methyl]-6-[5-fluoro-6-(2,2,2-trifluoroethoxy)-3-pyridyl]-[1,2,4]triazolo[4,3-a]pyridine]
< 30	COCc1nnc2cnc(-c3cnc(O[C@H](C)C(F)(F)F)c(F)c3)cn12 [Compound 31, 6-[5-fluoro-6-[(1R)-2,2,2-trifluoro-1-methyl-ethoxy]-3-pyridyl]-3-(methoxymethyl)-[1,2,4]triazolo[4,3-a]pyrazine]
> 70	CCOC(F)(F)c1nnc2ccc(-c3cnc(O[C@@H](C)C(F)(F)F)c(F)c3)cn12 [Compound 32, 3-[ethoxy(difluoro)methyl]-6-[5-fluoro-6-[(1S)-2,2,2-trifluoro-1-methyl-ethoxy]-3-pyridyl]-[1,2,4]triazolo[4,3-a]pyridine]
> 70	CCOC(F)(F)c1nnc2cnc(-c3cnc(O[C@@H](C)C(F)(F)F)c(F)c3)cn12 [Compound 33, 3-[ethoxy(difluoro)methyl]-6-[5-fluoro-6-[(1S)-2,2,2-trifluoro-1-methyl-ethoxy]-3-pyridyl]-[1,2,4]triazolo[4,3-a]pyrazine]

Structure (SMILES)	inhibition at 1 µM [%]
CC(C)COC(F)(F)c1nnc2ccc(-c3cnc(OCC(F)(F)F)c(F)c3)cn12 [Compound 2, 3-[difluoro(isobutoxy)methyl]-6-[5-fluoro-6-(2,2,2-trifluoroethoxy)-3-pyridyl]-[1,2,4]triazolo[4,3-a]pyridine]	> 70
COC(F)(F)c1nnc2ccc(-c3cnc(OC4(C(F)(F)F)CCC4)c(F)c3)nn12 [Compound 17, 3-[difluoro(methoxy)methyl]-6-[5-fluoro-6-[1-(trifluoromethyl)cyclobutoxy]-3-pyridyl]-[1,2,4]triazolo[4,3-b]pyridazine]	> 70
COC(F)(F)c1nnc2ccc(-c3cnc(OC4(C(F)(F)F)CCC4)c(F)c3)cn12 [Compound 18, 3-[difluoro(methoxy)methyl]-6-[5-fluoro-6-[1-(trifluoromethyl)cyclobutoxy]-3-pyridyl]-[1,2,4]triazolo[4,3-a]pyridine]	> 70
CC(C)COC(F)(F)c1nnc2ccc(-c3cnc(O[C@@H](C)C(F)(F)F)c(F)c3)cn12 [Compound 22, 3-[difluoro(isobutoxy)methyl]-6-[5-fluoro-6-[(1S)-2,2,2-trifluoro-1-methyl-ethoxy]-3-pyridyl]-[1,2,4]triazolo[4,3-a]pyridine]	> 70
CC(C)COC(F)(F)c1nnc2ccc(-c3cnc(O[C@H](C)C(F)(F)F)c(F)c3)cn12 [Compound 23, 3-[difluoro(isobutoxy)methyl]-6-[5-fluoro-6-[(1R)-2,2,2-trifluoro-1-methyl-ethoxy]-3-pyridyl]-[1,2,4]triazolo[4,3-a]pyridine]	> 70
COCc1nnc2ccc(-c3cnc(OC(C)(C)C(F)(F)F)c(F)c3)nn12 [Compound 27, 6-[5-fluoro-6-(2,2,2-trifluoro-1,1-dimethyl-ethoxy)-3-pyridyl]-3-(methoxymethyl)-[1,2,4]triazolo[4,3-b]pyridazine]	> 70
COCc1nnc2ccc(-c3cnc(OC(C)(C)C(F)(F)F)c(F)c3)cn12 [Compound 28, 6-[5-fluoro-6-(2,2,2-trifluoro-1,1-dimethyl-ethoxy)-3-pyridyl]-3-(methoxymethyl)-[1,2,4]triazolo[4,3-a]pyridine]	> 70
COCc1nnc2ccc(-c3cnc(OCC(F)(F)F)c(F)c3)cn12 [Compound 29, 6-[5-fluoro-6-(2,2,2-trifluoroethoxy)-3-pyridyl]-3-(methoxymethyl)-[1,2,4]triazolo[4,3-a]pyridine]	< 30

Reference: patent US11731976B2, “3-(ethoxydifluoromethyl)-6-(5-fluoro-6-(2,2,2-trifluoroethoxy)pyridin-3-yl)-[1,2,4]triazolo[4,3-a]pyridine as an ion channel modulator” (Praxis Precision Medicines, Inc., priority 2018, dated 2023)
